Laboratory results from patent publication US7511119B2, “PRAME peptide analogues” (MannKind Corporation, priority 2005, dated 2009).
“Also recorded” adds a separate entry of the source. Square brackets hold non-standard residues; d marks the D form. Ends that are not written are not given here. Peptide text beside a SMILES is read from it. Phe(4-F) = N[C@@H](Cc1ccc(F)cc1)C(=O)O

System: T cell lines against natural epitope SSX-241-49
Test: Cross-reactivity and functional avidity: IFN-gamma production by T cell lines raised against natural SSX-2 41-49;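 also: analogs presented ex vivo by competent APCs to T cells specific for the non-mutated epitope, scored by lowest activating concentration, peak cytokine effect and concentration at that peak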
Format: cell-based, HHD transgenic mice
Conditions: T cells raised to native peptide tested on analogs; footnote * and unit not given

Row | Compound | Cross-reactivity and fct avidity (native to analogs)*
1 | KLSEKIFYV [SSX2 41-49-NH2 (A42L)] | 3
2 | KASEKIFYV [SSX2 41-49-NH2] | >10
3 | FVSEKLFTA | >10
4 | K(D-Val)SEKIFYV [SSX2 41-49 (A42(D-Val))] | 3
5 | CC[C@H](C)[C@H](NC(=O)[C@H](CCCCN)NC(=O)[C@H](CCC(=O)O)NC(=O)[C@H](CO)NC(=O)[C@H](C)NC(=O)[C@@H](N)Cc1c[nH]c2ccccc12)C(=O)N[C@@H](Cc1ccccc1)C(=O)N[C@@H](Cc1ccc(O)cc1)C(=O)N[C@H](C(=O)O)C(C)C [SSX2 41-49 (K41W)] | >10
6 | FVSEKMFYV [SSX2 41-49 (K41F, A42V, I46M)] | >10
7 | CC[C@H](C)[C@H](NC(=O)[C@H](CCCCN)NC(=O)[C@H](CCC(=O)O)NC(=O)[C@H](CO)NC(=O)[C@@H](NC(=O)[C@@H](N)Cc1ccccc1)C(C)C)C(=O)N[C@@H](Cc1ccccc1)C(=O)N[C@@H](Cc1ccc(O)cc1)C(=O)N[C@@H](C)C(=O)O [SSX2 41-49 (K41F, A42V, V49A)] | 1
8 | CC[C@H](C)[C@H](NC(=O)[C@H](CCCCN)NC(=O)[C@H](CCC(=O)O)NC(=O)[C@H](CO)NC(=O)[C@@H](NC(=O)[C@@H](N)Cc1ccccc1)C(C)C)C(=O)N[C@@H](Cc1ccccc1)C(=O)N[C@@H](Cc1ccc(O)cc1)C(=O)N[C@@H](CC(C)C)C(=O)O [SSX2 41-49 (K41F, A42V, V49L)] | >10
9 | CC[C@H](C)[C@H](NC(=O)[C@H](CCCCN)NC(=O)[C@H](CCC(=O)O)NC(=O)[C@H](CO)NC(=O)[C@@H](NC(=O)[C@H](N)CCCCN)C(C)C)C(=O)N[C@@H](Cc1ccccc1)C(=O)N[C@@H](Cc1ccc(O)cc1)C(=O)N[C@H](C(=O)O)C(C)C [SSX2 41-49 (K41(D-Lys), A42V)] | 10
10 | KVSEKIFYI [SSX2 41-49 (A42V, V49I)] | 0.3
11 | CC[C@H](C)[C@H](NC(=O)[C@H](CCCCN)NC(=O)[C@@H](NC(=O)[C@H](CO)NC(=O)[C@@H](NC(=O)[C@@H](N)Cc1ccccc1)C(C)C)[C@@H](C)O)C(=O)N[C@@H](Cc1ccccc1)C(=O)N[C@@H](Cc1ccc(O)cc1)C(=O)N[C@H](C(=O)O)C(C)C [SSX2 41-49 (K41F, A42V, E44T)] | >10
12 | K(D-Ala)SEKIFYV [SSX2 41-49 (A42(D-Ala))] | 10
13 | FVSNKIFYV [SSX2 41-49 (K41F, A42V, E44N)] | >10
14 | CC[C@H](C)[C@H](NC(=O)[C@H](CCCCN)NC(=O)[C@H](CCC(=O)O)NC(=O)[C@H](CO)NC(=O)[C@H](CCSC)NC(=O)[C@@H](N)Cc1ccccc1)C(=O)N[C@@H](Cc1ccccc1)C(=O)N[C@@H](Cc1ccc(O)cc1)C(=O)N[C@H](C(=O)O)C(C)C [SSX2 41-49 (K41F, A42M)] | 3
15 | CCC[C@H](NC(=O)[C@@H](N)CCCCN)C(=O)N[C@@H](CO)C(=O)N[C@@H](CCC(=O)O)C(=O)N[C@@H](CCCCN)C(=O)N[C@H](C(=O)N[C@@H](Cc1ccccc1)C(=O)N[C@@H](Cc1ccc(O)cc1)C(=O)N[C@H](C(=O)O)C(C)C)[C@@H](C)CC [SSX2 41-49 (A42(Nva)), KNvaSEKIFYV] | 0.1
16 | CC[C@H](C)[C@H](NC(=O)[C@H](CCCCN)NC(=O)[C@H](CCC(=O)O)NC(=O)[C@H](CO)NC(=O)[C@H](CC(C)C)NC(=O)[C@@H](N)CCCCN)C(=O)N[C@@H](Cc1ccccc1)C(=O)N[C@@H](Cc1ccc(O)cc1)C(=O)N[C@H](C(=O)O)C(C)C [SSX2 41-49 (A42L)] | 0.03
17 | CC[C@H](NC(=O)[C@H](Cc1ccc(O)cc1)NC(=O)[C@H](Cc1ccccc1)NC(=O)[C@@H](NC(=O)[C@H](CCCCN)NC(=O)[C@H](CCC(=O)O)NC(=O)[C@H](CO)NC(=O)[C@@H](NC(=O)[C@@H](N)Cc1ccccc1)C(C)C)[C@@H](C)CC)C(=O)O [SSX2 41-49 (K41F, A42V, V49Abu)] | 1
18 | CC[C@H](C)[C@H](NC(=O)[C@H](CCCCN)NC(=O)[C@H](CCC(=O)O)NC(=O)[C@H](CO)NC(=O)C(C)(C)NC(=O)[C@@H](N)CCCCN)C(=O)N[C@@H](Cc1ccccc1)C(=O)N[C@@H](Cc1ccc(O)cc1)C(=O)N[C@H](C(=O)O)C(C)C [SSX2 41-49 (A42(Aib)), KAibSEKIFYV] | 3

Row | Compound | Cross-reactivity and fct avidity (native to analogs)*
19 | CC[C@H](C)[C@H](NC(=O)[C@H](CCCCN)NC(=O)[C@H](CCC(=O)O)NC(=O)[C@H](CO)NC(=O)[C@H](CC(C)C)NC(=O)[C@H](N)CCCCN)C(=O)N[C@@H](Cc1ccccc1)C(=O)N[C@@H](Cc1ccc(O)cc1)C(=O)N[C@H](C(=O)O)C(C)C [SSX2 41-49 (K41(D-Lys), A42L)] | 10
20 | CCCC[C@H](NC(=O)[C@@H](N)CCCCN)C(=O)N[C@@H](CO)C(=O)N[C@@H](CCC(=O)O)C(=O)N[C@@H](CCCCN)C(=O)N[C@H](C(=O)N[C@@H](Cc1ccccc1)C(=O)N[C@@H](Cc1ccc(O)cc1)C(=O)N[C@H](C(=O)O)C(C)C)[C@@H](C)CC [SSX2 41-49 (A42(Nle)), KNleSEKIFYV] | 0.1
21 | CCCC[C@H](NC(=O)[C@H](Cc1ccc(O)cc1)NC(=O)[C@H](Cc1ccccc1)NC(=O)[C@@H](NC(=O)[C@H](CCCCN)NC(=O)[C@H](CCC(=O)O)NC(=O)[C@H](CO)NC(=O)[C@@H](NC(=O)[C@@H](N)Cc1ccccc1)C(C)C)[C@@H](C)CC)C(=O)O [SSX2 41-49 (K41F, A42V, V49Nle)] | >10
22 | KNal-1SEKIFYV [SSX2 41-49 (A42(Nal-1))] | >10
23 | CCC[C@H](NC(=O)[C@H](Cc1ccc(O)cc1)NC(=O)[C@H](Cc1ccccc1)NC(=O)[C@@H](NC(=O)[C@H](CCCCN)NC(=O)[C@H](CCC(=O)O)NC(=O)[C@H](CO)NC(=O)[C@@H](NC(=O)[C@@H](N)Cc1ccccc1)C(C)C)[C@@H](C)CC)C(=O)O [SSX2 41-49 (K41F, A42V, V49Nva)] | 0.1
24 | CC[C@H](C)[C@H](NC(=O)[C@H](CCCCN)NC(=O)[C@H](CCC(=O)O)NC(=O)[C@H](CO)NC(=O)[C@H](CC(C)C)NC(=O)[C@@H](N)Cc1ccccc1)C(=O)N[C@@H](Cc1ccccc1)C(=O)N[C@@H](Cc1ccc(O)cc1)C(=O)N[C@H](C(=O)O)C(C)C [SSX2 41-49 (K41F, A42L)] | 0.3
25 | FVSEKIFY(Aib) [SSX2 41-49 (K41F, A42V, V49Aib)] | >10
26 | CC[C@H](C)[C@H](NC(=O)[C@H](CCCCN)NC(=O)[C@H](CCC(=O)O)NC(=O)[C@H](CO)NC(=O)[C@H](Cc1ccc2ccccc2c1)NC(=O)[C@@H](N)CCCCN)C(=O)N[C@@H](Cc1ccccc1)C(=O)N[C@@H](Cc1ccc(O)cc1)C(=O)N[C@H](C(=O)O)C(C)C [SSX2 41-49 (A42(Nal-2)), KNal-2SEKIFYV] | 3
27 | CC[C@H](C)[C@H](NC(=O)[C@H](CCCCN)NC(=O)[C@H](CCC(=O)O)NC(=O)[C@H](CO)NC(=O)[C@@H](NC(=O)[C@@H](N)Cc1c[nH]c2ccccc12)[C@@H](C)CC)C(=O)N[C@@H](Cc1ccccc1)C(=O)N[C@@H](Cc1ccc(O)cc1)C(=O)N[C@H](C(=O)O)C(C)C [SSX2 41-49 (K41W, A42I)] | 0.1
28 | KVSEKIFYV [SSX2 41-49-NH2 (A42V)] | 10
29 | FVSEKVFYV (T cell peptide epitope analog) [SSX2 41-49 (K41F, A42V, I46V)] | 1
30 | CC[C@H](C)[C@H](NC(=O)[C@H](CCCCN)NC(=O)[C@H](CCC(=O)O)NC(=O)[C@H](CO)NC(=O)[C@H](C)NC(=O)[C@@H](N)CCCCN)C(=O)N[C@@H](Cc1ccccc1)C(=O)N[C@@H](Cc1ccc(O)cc1)C(=O)N[C@H](C(=O)O)C(C)C [SSX2 41-49, reference compound] | 1
31 | CC[C@H](C)[C@H](NC(=O)[C@H](CCCCN)NC(=O)[C@H](CCC(=O)O)NC(=O)[C@H](CO)NC(=O)[C@@H](NC(=O)[C@@H](N)Cc1ccc(O)cc1)[C@@H](C)CC)C(=O)N[C@@H](Cc1ccccc1)C(=O)N[C@@H](Cc1ccc(O)cc1)C(=O)N[C@H](C(=O)O)C(C)C [SSX2 41-49 (K41Y, A42I)] | 1
32 | CC[C@H](C)[C@H](NC(=O)[C@H](CCCCN)NC(=O)[C@H](CO)NC(=O)[C@H](CO)NC(=O)[C@@H](NC(=O)[C@@H](N)Cc1ccccc1)C(C)C)C(=O)N[C@@H](Cc1ccccc1)C(=O)N[C@@H](Cc1ccc(O)cc1)C(=O)N[C@H](C(=O)O)C(C)C [SSX2 41-49 (K41F, A42V, E44S)] | >10
33 | CC[C@H](C)[C@H](NC(=O)[C@H](CCCCN)NC(=O)[C@H](CCC(=O)O)NC(=O)[C@H](CO)NC(=O)[C@H](C)NC(=O)[C@@H](N)Cc1ccc(F)cc1)C(=O)N[C@@H](Cc1ccccc1)C(=O)N[C@@H](Cc1ccc(O)cc1)C(=O)N[C@H](C(=O)O)C(C)C [SSX2 41-49 (K41(Phe-4F))] (H-[Phe(4-F)]ASEKIFYV-OH) | 3
34 | CC[C@H](NC(=O)[C@@H](N)CCCCN)C(=O)N[C@@H](CO)C(=O)N[C@@H](CCC(=O)O)C(=O)N[C@@H](CCCCN)C(=O)N[C@H](C(=O)N[C@@H](Cc1ccccc1)C(=O)N[C@@H](Cc1ccc(O)cc1)C(=O)N[C@H](C(=O)O)C(C)C)[C@@H](C)CC [SSX2 41-49 (A42(Abu)), KAbuSEKIFYV] | 0.3
35 | CC[C@H](C)[C@H](NC(=O)[C@H](CCCCN)NC(=O)[C@H](CCC(=O)O)NC(=O)[C@H](CO)NC(=O)[C@@H](NC(=O)[C@@H](N)Cc1ccccc1)C(C)C)C(=O)N[C@@H](Cc1ccccc1)C(=O)N[C@@H](Cc1ccc(O)cc1)C(=O)N(C)[C@H](C(=O)O)C(C)C [SSX2 41-49 (K41F, A42V, V49MeVal)] | 10

Same assay, conditions: compared with wild-type peptide

Row | Compound | activity in cross-reactivity assay (IFN-gamma production by wild-type SSX-2 41-49 specific T cells), in words
36 | KLSEKIFYV [SSX2 41-49-NH2 (A42L)] | lower concentration
37 | KASEKIFYVY (T cell peptide epitope analog) [SSX-241-50, wild-type SSX-2 41-50 decamer, reference compound] | no immunological activity; also recorded: significantly less active
